Test results from patent US9932392B2, “Prevention of infection” (priority 2012, dated 2018).

Columns and labels:
[1] = test system: toxinogenic C. difficile strain 10465; assay: Primary prevention of C. difficile infection (mouse model); type: in vivo, C57BL/6 mice; details: po gavage day -1 to 3 (5 doses), FIG. 6
Procedure: (§1) C57BL/6 mice were housed in cages with free access to chow (Purina 5000) and tap water. Animals were treated with a mixture of oral antibiotics (kanamycin, gentamicin, colistin, metronidazole, and vancomycin) for 3 days as previously described (Chen et al (2008) Gastroenterology 135: 1984-92). Two days later, they were given parenteral clindamycin phosphate (10 mG/kg s.c.) [Day −1]. One day later [Day 0] they were challenged by gavage with 0.5×10^5 cfu of toxinogenic C. difficile strain 10465. A moderate to fulminant colitis developed 1 to 5 days after the administration of C. difficile. Untreated, this progresses rapidly into severe and fatal colitis in the majority of animals. The test compounds (suspended in carbonate buffer) were administered to groups at the dosage levels as shown in Table 1 (n=10 per group except group 4). Dosing (by gavage) started 1 day before C. difficile challenge [Day −1] and continued daily for 5 days.
(§2) Animals were weighed daily and observed three times daily for morbidity and presence or absence of severe CDI with diarrhea. Animals judged to be in a moribund state [extended period of weight loss progressing to an emaciated state, anorexia for 24-48 hrs, prolonged lethargy (more than 3 days), signs of paralysis, skin erosions or trauma, hunched posture, distended abdomen] were euthanized by a single injection of sodium pentobarbital. […]

[2] = test system: toxinogenic C. difficile strain 10465; assay: Prevention of recurrence of C. difficile infection after vancomycin (mouse model); type: in vivo, C57BL/6 mice; details: vancomycin day -1 to 3 (5 doses), then Ig 400 mG/kg po day 4 to 8 (5 doses); observation until day 28; FIG. 7
Procedure: as §1, §2

CN[C@H](CC(C)C)C(=O)N[C@H]1C(=O)N[C@@H](CC(N)=O)C(=O)N[C@H]2C(=O)N[C@H]3C(=O)N[C@H](C(=O)N[C@H](C(=O)O)c4cc(O)cc(O)c4-c4cc3ccc4O)[C@H](O)c3ccc(c(Cl)c3)Oc3cc2cc(c3O[C@@H]2O[C@H](CO)[C@@H](O)[C@H](O)[C@H]2O[C@H]2C[C@](C)(N)[C@H](O)[C@H](C)O2)Oc2ccc(cc2Cl)[C@H]1O [Vancomycin]
fraction of animals with recurrence of C. difficile infection after stopping treatment [1]: 60%
survival rate ([1]; vancomycin 50 mG/kg, IgA 400 mG/kg): 40%
rate of recurrence of infection (animals) [2]: 6 out of 10
